# Assay results taken from ChEMBL document CHEMBL3885881, “DrugMatrix”.
# Species: Rattus norvegicus
# Experiment: DrugMatrix - Regimen: Daily Repeat
# Format: toxicity, organism-based, Sprague-Dawley
# Set-up: regimen Daily Repeat, gender Male, age 6-8 weeks
# Conditions: in vivo, po, route oral GAVAGE, vehicle .5 % CMC; for ABSOLUTE BASOPHIL / ABSOLUTE EOSINOPHIL / ABSOLUTE LYMPHOCYTE / ABSOLUTE MONOCYTE / ABSOLUTE SEGMENTED NEUTROPHIL / BASOPHIL / EOSINOPHIL / ERYTHROCYTE COUNT / HEMATOCRIT / HEMOGLOBIN / LEUKOCYTE COUNT / LYMPHOCYTE / MEAN CORPUSCULAR HEMOGLOBIN / MEAN CORPUSCULAR HEMOGLOBIN CONCENTRATION / MEAN CORPUSCULAR VOLUME / MONOCYTE / NEUTROPHIL / NUCLEATED RED BLOOD CELLS / PLATELET COUNT: tissue Blood; for ALANINE AMINOTRANSFERASE / ALBUMIN / ALKALINE PHOSPHATASE / ASPARTATE AMINOTRANSFERASE / BLOOD UREA NITROGEN / CARBON DIOXIDE / CHLORIDE / CHOLESTEROL / CREATINE PHOSPHOKINASE / CREATININE / GLUCOSE / LACTATE DEHYDROGENASE / LIPASE / PHOSPHORUS / POTASSIUM / SODIUM / TOTAL BILIRUBIN / TOTAL PROTEIN / URIC ACID: tissue Plasma
# [1] = 5 mg/kg, 72 h, dose level Low, time 3 day
# [2] = 5 mg/kg, 120 h, dose level Low, time 5 day
# [3] = 35 mg/kg, 72 h, dose level High, time 3 day
# [4] = 35 mg/kg, 120 h, dose level High, time 5 day
compound,measurement,setting,value
COc1cc(CNC(=O)CCCC/C=C/C(C)C)ccc1O [CAPSAICIN],ABSOLUTE BASOPHIL,[1],0 CELLS/uL
same,ABSOLUTE EOSINOPHIL,[1],231.67 CELLS/uL
same,ABSOLUTE LYMPHOCYTE,[1],12823.67 CELLS/uL
same,ABSOLUTE MONOCYTE,[1],176.33 CELLS/uL
same,ABSOLUTE SEGMENTED NEUTROPHIL,[1],735 CELLS/uL
same,BASOPHIL,[1],0%
same,EOSINOPHIL,[1],1.33%
same,ERYTHROCYTE COUNT,[1],5.55 x10E6/uL
same,HEMATOCRIT,[1],34.43%
same,HEMOGLOBIN,[1],12.97 G/DL
same,LEUKOCYTE COUNT,[1],13.97 x10E3/uL
same,LYMPHOCYTE,[1],92%
same,MEAN CORPUSCULAR HEMOGLOBIN,[1],23.37 pg
same,MEAN CORPUSCULAR HEMOGLOBIN CONCENTRATION,[1],37.63 G/DL
same,MEAN CORPUSCULAR VOLUME,[1],62.03 fL
same,MONOCYTE,[1],1.33%
same,NEUTROPHIL,[1],5.33%
same,NUCLEATED RED BLOOD CELLS,[1],0 /100WBC
same,PLATELET COUNT,[1],1334 x10E3/uL
same,ALANINE AMINOTRANSFERASE,[1],40.33 u/L
same,ALBUMIN,[1],4.27 G/DL
same,ALKALINE PHOSPHATASE,[1],433 u/L
same,ASPARTATE AMINOTRANSFERASE,[1],75.33 u/L
same,BLOOD UREA NITROGEN,[1],15 mg/dL
same,CARBON DIOXIDE,[1],25.33 mmol/L
same,CHLORIDE,[1],104.67 MEQ/L
same,CHOLESTEROL,[1],57 mg/dL
same,CREATINE PHOSPHOKINASE,[1],554.67 u/L
same,CREATININE,[1],0.17 mg/dL
same,GLUCOSE,[1],177.67 mg/dL
same,LACTATE DEHYDROGENASE,[1],121 u/L
same,LIPASE,[1],8 u/L
same,PHOSPHORUS,[1],12.47 mg/dL
same,POTASSIUM,[1],6.02 MEQ/L
same,SODIUM,[1],145.37 MEQ/L
same,TOTAL BILIRUBIN,[1],0.23 mg/dL
same,TOTAL PROTEIN,[1],5.9 G/DL
same,URIC ACID,[1],1.5 mg/dL
same,ABSOLUTE BASOPHIL,[2],0 CELLS/uL
same,ABSOLUTE EOSINOPHIL,[2],118.67 CELLS/uL
same,ABSOLUTE LYMPHOCYTE,[2],14371.67 CELLS/uL
same,ABSOLUTE MONOCYTE,[2],374.33 CELLS/uL
same,ABSOLUTE SEGMENTED NEUTROPHIL,[2],1135.33 CELLS/uL
same,BASOPHIL,[2],0%
same,EOSINOPHIL,[2],0.67%
same,ERYTHROCYTE COUNT,[2],5.31 x10E6/uL
same,HEMATOCRIT,[2],33.03%
same,HEMOGLOBIN,[2],12.53 G/DL
same,LEUKOCYTE COUNT,[2],16 x10E3/uL
same,LYMPHOCYTE,[2],89.67%
same,MEAN CORPUSCULAR HEMOGLOBIN,[2],23.6 pg
same,MEAN CORPUSCULAR HEMOGLOBIN CONCENTRATION,[2],37.93 G/DL
same,MEAN CORPUSCULAR VOLUME,[2],62.17 fL
same,MONOCYTE,[2],2.33%
same,NEUTROPHIL,[2],7.33%
same,NUCLEATED RED BLOOD CELLS,[2],0 /100WBC
same,PLATELET COUNT,[2],1256.67 x10E3/uL
same,ALANINE AMINOTRANSFERASE,[2],50 u/L
same,ALBUMIN,[2],4.1 G/DL
same,ALKALINE PHOSPHATASE,[2],314 u/L
same,ASPARTATE AMINOTRANSFERASE,[2],93.67 u/L
same,BLOOD UREA NITROGEN,[2],18.33 mg/dL
same,CARBON DIOXIDE,[2],24.33 mmol/L
same,CHLORIDE,[2],107.67 MEQ/L
same,CHOLESTEROL,[2],68 mg/dL
same,CREATINE PHOSPHOKINASE,[2],629.33 u/L
same,CREATININE,[2],0.21 mg/dL
same,GLUCOSE,[2],153 mg/dL
same,LACTATE DEHYDROGENASE,[2],471.33 u/L
same,LIPASE,[2],8.33 u/L
same,PHOSPHORUS,[2],12.63 mg/dL
same,POTASSIUM,[2],5.84 MEQ/L
same,SODIUM,[2],145.1 MEQ/L
same,TOTAL BILIRUBIN,[2],0.2 mg/dL
same,TOTAL PROTEIN,[2],6.2 G/DL
same,URIC ACID,[2],1.73 mg/dL
same,ABSOLUTE BASOPHIL,[3],0 CELLS/uL
same,ABSOLUTE EOSINOPHIL,[3],0 CELLS/uL
same,ABSOLUTE LYMPHOCYTE,[3],7477.33 CELLS/uL
same,ABSOLUTE MONOCYTE,[3],60 CELLS/uL
same,ABSOLUTE SEGMENTED NEUTROPHIL,[3],496 CELLS/uL
same,BASOPHIL,[3],0%
same,EOSINOPHIL,[3],0%
same,ERYTHROCYTE COUNT,[3],5.28 x10E6/uL
same,HEMATOCRIT,[3],33.53%
same,HEMOGLOBIN,[3],12.7 G/DL
same,LEUKOCYTE COUNT,[3],8.03 x10E3/uL
same,LYMPHOCYTE,[3],92.67%
same,MEAN CORPUSCULAR HEMOGLOBIN,[3],24.13 pg
same,MEAN CORPUSCULAR HEMOGLOBIN CONCENTRATION,[3],37.9 G/DL
same,MEAN CORPUSCULAR VOLUME,[3],63.63 fL
same,MONOCYTE,[3],1%
same,NEUTROPHIL,[3],6.33%
same,NUCLEATED RED BLOOD CELLS,[3],0.33 /100WBC
same,PLATELET COUNT,[3],1342.33 x10E3/uL
same,ALANINE AMINOTRANSFERASE,[3],44 u/L
same,ALBUMIN,[3],4.33 G/DL
same,ALKALINE PHOSPHATASE,[3],316 u/L
same,ASPARTATE AMINOTRANSFERASE,[3],71.33 u/L
same,BLOOD UREA NITROGEN,[3],17.33 mg/dL
same,CARBON DIOXIDE,[3],27.67 mmol/L
same,CHLORIDE,[3],103.5 MEQ/L
same,CHOLESTEROL,[3],75.67 mg/dL
same,CREATINE PHOSPHOKINASE,[3],217 u/L
same,CREATININE,[3],0.22 mg/dL
same,GLUCOSE,[3],141.67 mg/dL
same,LACTATE DEHYDROGENASE,[3],119.33 u/L
same,LIPASE,[3],8.5 u/L
same,PHOSPHORUS,[3],11.67 mg/dL
same,POTASSIUM,[3],5.75 MEQ/L
same,SODIUM,[3],147.2 MEQ/L
same,TOTAL BILIRUBIN,[3],0.27 mg/dL
same,TOTAL PROTEIN,[3],6.13 G/DL
same,URIC ACID,[3],1.1 mg/dL
same,ABSOLUTE BASOPHIL,[4],0 CELLS/uL
same,ABSOLUTE EOSINOPHIL,[4],117.33 CELLS/uL
same,ABSOLUTE LYMPHOCYTE,[4],12147.67 CELLS/uL
same,ABSOLUTE MONOCYTE,[4],58.67 CELLS/uL
same,ABSOLUTE SEGMENTED NEUTROPHIL,[4],1243 CELLS/uL
same,BASOPHIL,[4],0%
same,EOSINOPHIL,[4],1%
same,ERYTHROCYTE COUNT,[4],5.71 x10E6/uL
same,HEMATOCRIT,[4],34.97%
same,HEMOGLOBIN,[4],13.33 G/DL
same,LEUKOCYTE COUNT,[4],13.57 x10E3/uL
same,LYMPHOCYTE,[4],88.67%
same,MEAN CORPUSCULAR HEMOGLOBIN,[4],23.4 pg
same,MEAN CORPUSCULAR HEMOGLOBIN CONCENTRATION,[4],38.13 G/DL
same,MEAN CORPUSCULAR VOLUME,[4],61.27 fL
same,MONOCYTE,[4],0.33%
same,NEUTROPHIL,[4],10%
same,NUCLEATED RED BLOOD CELLS,[4],0 /100WBC
same,PLATELET COUNT,[4],1274 x10E3/uL
same,ALANINE AMINOTRANSFERASE,[4],52.67 u/L
same,ALBUMIN,[4],4.07 G/DL
same,ALKALINE PHOSPHATASE,[4],391 u/L
same,ASPARTATE AMINOTRANSFERASE,[4],83.67 u/L
same,BLOOD UREA NITROGEN,[4],18 mg/dL
same,CARBON DIOXIDE,[4],25.67 mmol/L
same,CHLORIDE,[4],105.33 MEQ/L
same,CHOLESTEROL,[4],62 mg/dL
same,CREATINE PHOSPHOKINASE,[4],166.33 u/L
same,CREATININE,[4],0.21 mg/dL
same,GLUCOSE,[4],177 mg/dL
same,LACTATE DEHYDROGENASE,[4],115.67 u/L
same,LIPASE,[4],8.67 u/L
same,PHOSPHORUS,[4],13.17 mg/dL
same,POTASSIUM,[4],6.01 MEQ/L
same,SODIUM,[4],146.17 MEQ/L
same,TOTAL BILIRUBIN,[4],0.17 mg/dL
same,TOTAL PROTEIN,[4],6.03 G/DL
same,URIC ACID,[4],1.8 mg/dL
